Experimental data from patent publication US12173018B2, “Penicillin-binding protein inhibitors” (priority 2018, dated 2024).
Values after ≈ are worked out from the molar mass of the structure shown.

What was measured:
[1] = system: engineered strain of Escherichia coli harboring CTX-M15; experiment: microbe, parasite or virus in culture; format: cell-based; conditions: Escherichia coli, read-out: Microbiological Activity (MIC in mg/L), E. coli DH5α/pLBII-CTX-M15, engineered strain producing CTX-M15
Method: Briefly, cryo-preserved bacterial cultures of challenge strains are streaked for isolation on appropriate agar medium, in this case Mueller Hinton II agar. Following incubation to allow growth of the colonies, plates are sealed with parafilm and stored refrigerated for up to two weeks. For preparation of assay inoculum and to ensure low variability, at least 5 colonies are picked from the agar plates with an inoculating loop and aseptically transferred to a culture tube containing 3 mL of Mueller-Hinton Broth (supplemented with divalent cations to required levels based on Manufacturers' certification). The broth culture is grown for 3-5 hours at 37° C. with shaking at 200 rpm. Meanwhile, 2-fold serial dilutions of test compounds are conducted in a 96 well plate with a final volume of 75 μL per well at 2-fold the final desired concentration. After the dilution plates are set up the growing cultures are then diluted in a cuvette containing MH II broth and the optical density is measured at 600 nm. The Inoculum is diluted such that 75 μL of this culture in Mueller-Hinton Broth results in a starting bacterial concentration of 5×10^5 CFU/mL when added to the dilution plates. The plates are incubated for 16-20 hours at 37° C. The MIC values are read visually as the lowest concentration well with no bacterial growth.
To determine if test compounds were affected by CTX-M15, the most abundant extended spectrum […] in clinical settings worldwide, the inhibition of the growth of an engineered strain of Escherichia coli harboring CTX-M15 was tested. This strain was constructed by cloning the gene encoding CTX-M15 into the NdeI and BamHI restriction endonuclease sites of plasmid pLBII, placing the gene(s) under the control of the Lac promoter. The constructed expression plasmid for CTX-M15 was used to transform competent E. coli DH5α cells to make the engineered strain, including an empty pLBII vector control strain. The classic cell based broth microdilution MIC assay was employed as described above with the addition of control antibiotics, known to be degraded by β-lactamases (Ceftazidime, piperacillin and piperacillin+tazobactam).

E. coli PBP3 = E. coli PBP3 (Escherichia coli (strain K12), UniProt P0AD68); experiment: E. coli PBP3 Bocillin-FL fluorescence polarization competition binding assay; conditions: fluorescence polarization competition binding with Bocillin-FL; read-out: E. coli K12 PBP3 Potency
Method in brief: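 FP competition: 1.5 μM PBP, 0.1 μM Bocillin-FL, cpd 0–1000 μM; 50 mM Hepes pH 8.0/300 mM NaCl/5% glycerol. Read 490/520 nm immediately after Bocillin-FL addition, 60 min. EC50 = cpd conc. lowering probe binding.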

Chain of E. coli PBP3 (P0AD68 whole entry): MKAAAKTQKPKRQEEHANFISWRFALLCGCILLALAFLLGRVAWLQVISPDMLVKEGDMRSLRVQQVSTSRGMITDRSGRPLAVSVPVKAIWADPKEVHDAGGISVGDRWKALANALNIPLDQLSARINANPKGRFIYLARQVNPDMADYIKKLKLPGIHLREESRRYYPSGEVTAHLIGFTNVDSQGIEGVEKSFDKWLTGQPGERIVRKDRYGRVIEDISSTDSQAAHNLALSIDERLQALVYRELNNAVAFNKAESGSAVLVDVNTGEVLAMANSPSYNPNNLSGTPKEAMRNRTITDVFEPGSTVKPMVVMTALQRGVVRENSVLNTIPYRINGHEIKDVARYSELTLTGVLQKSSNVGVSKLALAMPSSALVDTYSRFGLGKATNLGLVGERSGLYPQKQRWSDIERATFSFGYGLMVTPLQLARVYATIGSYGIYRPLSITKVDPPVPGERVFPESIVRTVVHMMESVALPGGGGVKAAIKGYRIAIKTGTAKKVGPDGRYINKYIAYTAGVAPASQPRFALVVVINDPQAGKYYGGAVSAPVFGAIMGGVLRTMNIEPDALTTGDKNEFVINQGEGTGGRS

SMILES	MIC [1] [mg/L]	EC50 (E. coli PBP3) [µM]
CCN1CCN(C(=O)N[C@@H](C(=O)N[C@H]2Cc3cc(O)c(O)c(C(=O)O)c3OB2O)[C@H](C)O)C(=O)C1=O [Example 96, (R)-3-((2R,3S)-2-(4-ethyl-2,3-dioxopiperazine-1-carboxamido)-3-hydroxybutanamido)-2,6,7-trihydroxy-3,4-dihydro-2H-benzo[e][1,2]oxaborinine-8-carboxylic acid]	128 to 256 (≈ 252 to 504 µM)	> 500
CCN1CCN(C(=O)N[C@H](CNS(=O)(=O)C(F)(F)F)C(=O)N[C@H]2Cc3cccc(C(=O)O)c3OB2O)C(=O)C1=O [Example 75, (R)-3-((R)-2-(4-ethyl-2,3-dioxopiperazine-1-carboxamido)-3-((trifluoromethyl)sulfonamido)propanamido)-2-hydroxy-3,4-dihydro-2H-benzo[e][1,2]oxaborinine-8-carboxylic acid]	128 to 256 (≈ 216 to 431 µM)	> 500
C[C@@H](O)[C@@H](NC(=O)N1CCN(CCF)C(=O)C1=O)C(=O)N[C@H]1Cc2cc(O)c(O)c(C(=O)O)c2OB1O [Example 94, (R)-3-((2R,3R)-2-(4-(2-fluoroethyl)-2,3-dioxopiperazine-1-carboxamido)-3-hydroxybutanamido)-2,6,7-trihydroxy-3,4-dihydro-2H-benzo[e][1,2]oxaborinine-8-carboxylic acid]	128 to 256 (≈ 243 to 486 µM)	> 500
CCN1CCN(C(=O)N[C@H](CNS(C)(=O)=O)C(=O)N[C@H]2Cc3cccc(C(=O)O)c3OB2O)C(=O)C1=O [Example 83, (R)-3-((R)-2-(4-ethyl-2,3-dioxopiperazine-1-carboxamido)-3-(methylsulfonamido)propanamido)-2-hydroxy-3,4-dihydro-2H-benzo[e][1,2]oxaborinine-8-carboxylic acid]	32 to 64 (≈ 59.3 to 119 µM)	> 500
